Data as given in patent US12673034B2, “Peptides, compounds, compositions and methods for inhibiting SOX9” (CRITICAL OUTCOME TECHNOLOGIES INC., priority 2019, dated 2026).
Positions count from the first letter of the chain named. Read-outs that look alike come from different tables or passages of the source.

How the values were obtained:
SOX9 [1] = molecular target: T1, SOX9 (Rattus norvegicus, UniProt F1LYL9); assay: Q-PCR of SOX9 and SOX9 target gene expression in primary rat astrocyte cultures; assay type: cell-based; conditions: 10 μM
T1 construct: endogenous in cells; host or cells: primary rat astrocyte cultures
T1 sequence (F1LYL9 1-507): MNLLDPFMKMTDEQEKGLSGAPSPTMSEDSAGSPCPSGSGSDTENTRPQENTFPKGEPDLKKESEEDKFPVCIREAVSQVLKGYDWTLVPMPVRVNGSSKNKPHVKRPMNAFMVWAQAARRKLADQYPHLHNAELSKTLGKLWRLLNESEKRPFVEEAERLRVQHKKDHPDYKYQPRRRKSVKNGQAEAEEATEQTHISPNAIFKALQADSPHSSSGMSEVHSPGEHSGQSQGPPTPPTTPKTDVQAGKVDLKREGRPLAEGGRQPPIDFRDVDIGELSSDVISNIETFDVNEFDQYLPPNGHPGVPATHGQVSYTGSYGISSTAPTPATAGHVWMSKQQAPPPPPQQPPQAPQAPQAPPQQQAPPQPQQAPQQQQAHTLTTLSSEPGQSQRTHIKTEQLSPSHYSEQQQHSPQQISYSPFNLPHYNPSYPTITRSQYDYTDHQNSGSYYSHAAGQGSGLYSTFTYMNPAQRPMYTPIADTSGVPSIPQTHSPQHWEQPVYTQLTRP
Description: FIG. 2 graphically depicts results from treatment of two-week old rat astrocytes for 48 h (hours) with 10 μM SOX-DIMER (white), which show decreased SOX9 target gene expression compared to control (FLAG-Tat) peptide-treated cultures (black) (* indicates statistical significance P<0.05, two-tailed t-test; N=4);
Primary astrocyte cultures were treated with 10 μM SOX-DIMER peptide or of a control peptide (FLAG-Tat) for 48 h and then harvested RNA.
(§1) To identify small molecule inhibitors of SOX9 design efforts focused on the septameric peptide sequence (IREAVSQ, SEQ ID NO:1, underlined in the SOX-DIMER sequence given above) identified as a subregion of the known SOX9 dimerization domain with a high likelihood of direct participation in dimerization. This prediction was based on the position of the human mutation that causes the skeletal but not the sex reversal abnormalities of campomelic dyskplasia (Bernard et al 2003). A computational screen of ˜12 million compounds was performed to identify small molecules predicted to interfere with SOX9 dimerization, based on the physical-chemical properties of the SOX-DIMER peptide motif.

[2] = test system: CSPG levels in the injured rat spinal cord; assay: CSPG levels in injured rat spinal cord, biotinylated-WFA staining; assay type: in vivo; conditions: T9 200 kdyne SCI, intrathecal pump approximately 400 μg/Kg/day for 4 weeks, sections caudal to the lesion, vs vehicle
Description: To assess the effect of compound 1 on CSPG levels in the injured rat spinal cord, compound 1 or vehicle was delivered by an intrathecal pump delivering compound 1 at approximately 400 μg/Kg/day for 4 weeks starting immediately after a 200 kdyne T9 thoracic SCI. This dose was predicted to result in a concentration of compound 1 of between 10 and 30 μM based on an estimated cerebrospinal fluid volume of 580 μL (Murtha et al 2014) and a turnover rate of about 12-13 times per day (Simon et al 1995).

spinal cord injured rats = assay: Locomotor recovery (hind limb function, open field test, BBB score) after thoracic SCI; assay type: in vivo; conditions: rat, T9 200 kdyne SCI, intrathecal approximately 400 μg/Kg/day
Description: In a longer-term study, compound 1 (approximately 400 μg/Kg/day) or vehicle was again delivered intrathecally to rats immediately after a T9, 200 kdyne SCI, and hind limb function was evaluated twice per week by an observer blinded to treatment group in an open field test for […] (FIG. 5). […] By day 56 the compound 1-treated rats achieved average locomotor BBB scores (Basso et al 1995) of 12.4±0.8 indicating consistent weight supported plantar placement and occasional forelimb/hind limb coordination while the vehicle-treated rats only achieved an average locomotor BBB score of 10.4±0.7, indicating occasional weight supported planter placement with no forelimb/hind limb coordination.

[3] = Spinal cord concentration after intravenous injection, UPLC coupled to mass spectrometry; assay type: in vivo, rat
Description: Compound 1 was delivered intrathecally as it was initially unknown the inhibitory compound could cross the blood brain barrier. To resolve this issue a subsequent study was carried out in which control and T9 spinal cord injured rats were given intravenous injections of compound 1 (1 or 10 nmol/g) or of vehicle at 24 and 48 h after SCI and sacrificed 24 h later. […] Compound 1 was even found in the spinal cords after dosing uninjured controls (FIG. 6).
Using a standard curve, the concentration of compound 1 in the injured spinal cord after a 10 nmol/g iv injection was determined to be 2.7 μM at the lesion epicenter, 1.9 μM in the lumbar cord and 1.02 μM in the uninjured cord.

SOX9 [4] = molecular target: T2, SOX9 (Mus musculus, UniProt Q04887); assay: SOX9 target gene expression in chondrogenic cell line ATDC5; assay type: cell-based; parameters: in the chondrogenic cell line ATDC5; endogenous in cells; host or cells: ATDC5 chondrogenic cell line
T2 sequence (Q04887 1-507): T1 sequence (F1LYL9 1-507) with S314T, P368Q, Q369P, N427S, T432P, T441A
Text: as §1
Some of the inhibitor compounds were also tested on ATDC5 cells for their effect on SOX9 target gene expression by q-PCR (aggrecan data is shown in FIG. 11) and on LX-2 (human hepatocyte (stellate cells) cells for collagen gene expression (associated with liver fibrosis), as shown in FIG. 12.

SOX9 [5] = molecular target: T2, SOX9; assay: SOX9 target gene expression in primary mouse astrocyte cultures; assay type: cell-based; parameters: primary mouse and rat astrocyte cultures; endogenous in cells; host or cells: primary mouse astrocyte cultures; conditions: primary mouse astrocyte cultures (FIG. 3)

Row | Molecule | SOX9 target gene expression (SOX9 [1]; primary rat astrocyte cultures, 48 h vs vehicle (FIG. 3)) | reduction in CSPG levels (WFA staining) [2] [fold] | average locomotor BBB score (spinal cord injured rats; day 56) | hind limb function in open field test (spinal cord injured rats; vs vehicle) | concentration at 24 h after the last injection ([3]; lesion epicenter, T9 spinal cord injured rat, 10 nmol/g iv at 24 and 48 h after SCI, sacrificed 24 h later, read-out: concentration in spinal cord at the lesion epicenter) [nM] | concentration at 24 h after the last injection ([3]; lumbar enlargement (distal to the lesion), T9 spinal cord injured rat, 10 nmol/g iv at 24 and 48 h after SCI, sacrificed 24 h later, read-out: concentration in the lumbar cord) [nM] | reduction of spinal cord concentrations after 1 nmol/g relative to 10 nmol/g ([3]; rat, 1 nmol/g iv injections) [fold] | penetration of the blood-spinal cord barrier ([3]; rat, 10 nmol/g iv, control or spinal cord injured) | concentration at 24 h after the last injection ([3]; uninjured spinal cord, uninjured control rat, 10 nmol/g iv, read-out: concentration in the uninjured cord) [nM] | SOX9 target gene expression (SOX9 [4]) | SOX9 target gene expression (SOX9 [5]) | expression of SOX9 and SOX9 target genes (XT-1, XT-2, Hapln1, Collagen 2a1, GFAP, aggrecan, brevican) (SOX9 [1]; 48 h, primary astrocyte cultures, vs control peptide FLAG-Tat, Q-PCR (FIG. 2))
1 | COc1ccc(C(=O)N2CCN(C)CC2)cc1NC(=O)COc1cc(C)ccc1C(C)C [compound 1] | decrease SOX9 target gene expression | 3 | 12.4±0.8 | statistically significant improvement | 2700 | 1900 | 10 | can penetrate the blood-spinal cord barrier | 1020 | decrease SOX9 target gene expression | decrease SOX9 target gene expression | 
2 | SOX-DIMER: fusion between the SOX9 dimerization motif (DKFPVCIREAVSQVLKGYDW, SEQ ID NO. 2) and the protein transduction domain of the HIV-1 Tat protein (DKFPVCIREAVSQVLKGYDWKYGRKKRRQRRR) |  |  |  |  |  |  |  |  |  |  |  | significantly reducing the expression of SOX9 and SOX9 target genes
